From US20260284069A1, “PARG INHIBITORY COMPOUNDS” (FoRx Therapeutics AG, priority 2023, published 2026) come the findings set out here.

Assay [1] addresses T1, human PARG (Homo sapiens, UniProt Q86W56, A967T/C963S/D927K/H446G/I916T/L447S/L473S/M841I/N479S/R811K/S802A/S858P/T924D).
T1 construct: human PARG (448-976 [H446G, L447S, L473S); 6His-TwinStrep (protease-cleavable) (N, cleaved yes); Gly-Ser at positions 446-447, given as H446G, L447S; host or cells: E. coli BL21 (DE3)
Briefly: PARG enzymatic IC50 assay. The class given is biochemical. As to conditions: PARG protein, 2 hours incubation; substrate ADP-ribose-pNP, absorbance 405 nm; read-out: IC50 determined in PARG enzymatic assay. As for the experimental part: A codon optimized gene encoding human PARG (448-976 [H446G, L447S, L473S, N479S, S802A, R811K, M841I, S858P, I916T, T924D, D927K, C963S, A967T]) was synthesized by Genscript, and cloned into pET15b (NcoI/BamHI) with an N-terminal, […] protease cleavable 6His-TwinStrep tag. Expression of the protein in E. coli BL21 (DE3) was induced by addition of 0.2 mM IPTG to a shake flask culture grown to OD600=0.8 at 37° C. Growth was allowed to continue at 30° C. for a further 20 hours before harvesting by centrifugation and storage of the cell pellet at −80° C.
Protein was purified by IMAC and SEC: frozen cell pellets (typically 40 g wet weight) were resuspended by homogenization in 5 volumes buffer A (25 mM Tris/HCl pH 8.0, 200 mM NaCl, 2 mM DTT), supplemented with 1 mg of DNase I from bovine pancreas (Sigma-Aldrich) and protease inhibitors (Roche Complete™ EDTA-free protease inhibitor tablet), and lysed by passage through a Constant Systems BasicZ homogenizer. The lysate was clarified by centrifugation for 60 minutes at 25,000 g, 4° C., and the lysate supernatant was loaded onto 5 ml StrepTrap HP (Cytiva) pre-equilibrated with buffer A. The column was washed with buffer A (~10 CV), then buffer B containing 1M KCl (~5 CV), and then the protein was eluted with buffer A containing 2.5 mM d-Desthiobiotin. Pooled fractions containing 6HisTwinStrep-TEV-hPARG were incubated with TEV protease overnight at 4° C. hPARG was separated from uncleaved material and […] protease through gel filtration with Superdex75 sizing column (GE Healthcare) pre-equilibrated with SEC buffer (15 mM Tris/HCl pH 8.5, 100 mM NaCl, 2 mM DTT). Pooled fractions containing pure hPARG were concentrated using a 10 k MWCO spin concentrator (VivaSpin) to 10 mg/mL, and then either used immediately for crystallisation or snap-frozen in liquid nitrogen for storage at −80° C.
PARG enzyme as incubated with compound or vehicle (DMSO) for 2 hours in a 384 well plate. After adding the PARG substrate ADP-ribose-pNP, the plate was read for absorbance intensity at 405 nm. The vehicle (DMSO) with high absorbance intensity represents no inhibition of enzymatic reaction while the low control (no enzyme) with low absorbance intensity represents full inhibition of enzymatic reaction.
• hPARG: Peak Protein, 30 nM • Substrate: ADP-pNP, 800 μM, Jena Bioscience catalog #NU-955 • Reaction time: 60 minutes • Assay buffer: 50 mM Tris-HCl pH 8.0, 100 mM NaCl, 2 mM DTT • Temperature: 30° C. • Total volume: 30 μL
• 0% inhibition control: DMSO • 100% inhibition control: No enzyme
The protocol that was used for enzyme reaction and detection is as follows: • 1. Transfer 100 nL of the final concentration of test compounds or vehicle (DMSO) to the appropriate wells of a microtiter plate. • 2. Centrifuge the plate at 1000 rpm for 1 minute. • 3. Transfer 14.6 μL of 2× final concentration of enzyme in assay buffer or assay buffer alone to the appropriate wells. • 4. Centrifuge the plate at 1000 rpm for 1 minute. • 5. Incubate the plate at room temperature for 15 minutes or 2 hours. • 6. Transfer 15.4 μL of 2× substrate in assay buffer to all the test wells. • 7. Centrifuge the plate at 1000 rpm for 1 minute. • 8. Read the plate on a plate reader (e.g., Spark Tecan).

For assay [2], the system named is U2OS cells. Briefly: Cellular viability assay (U2OS, PARG-inhibition insensitive cell line). The format is cell-based. As to conditions: 96 hours incubation, Cell Titer-Glo, read-out: EC50 determined in U2OS cells, cellular viability assay. The procedure:
(§1) NCIH-460 as a PARG-inhibition sensitive cell line and U2OS as PARG-inhibition insensitive cell line were plated at 1000 cells/well and 2000 cells/well, respectively, in 96-well white plates with clear flat bottom. After 24 hours, the compounds were added with the Tecan digital dispenser (D300e), in duplicates. The outer wells of the plate were excluded. After 96 hours of incubation, 150 μl of the growth medium were removed and 50 μl of Cell Titer-Glo (Promega) were added per well. Following an incubation of 10 minutes, luminescence was read using a plate reader (Tecan). Averaged values of the samples were normalized to DMSO treated control samples. Curves were fit as % of the control vs. log of the compound concentration using a 4 parameter log-logistic function: […]
In general terms: ATP-based viability assays read luminescence as a measure of living cells.

Assay [3] concerns NCIH-460 cells. Briefly: Cellular viability assay (NCIH-460, PARG-inhibition sensitive cell line). The format is cell-based. As to conditions: 96 hours incubation, Cell Titer-Glo, read-out: EC50 determined in NCIH-460 cells, cellular viability assay. The procedure: as §1

pEC50, pIC50: −log10 of the molar value. Where a name gives a salt, the structure may show the parent alone. Read-outs that look alike come from different tables or passages of the source. A value given as a limit tells only on which side of the number the result lay.

T1 sequence (Q86W56 446-976 H446G/L447S/L473S/N479S/S802A/R811K/M841I/S858P/I916T/T924D/D927K/C963S/A967T): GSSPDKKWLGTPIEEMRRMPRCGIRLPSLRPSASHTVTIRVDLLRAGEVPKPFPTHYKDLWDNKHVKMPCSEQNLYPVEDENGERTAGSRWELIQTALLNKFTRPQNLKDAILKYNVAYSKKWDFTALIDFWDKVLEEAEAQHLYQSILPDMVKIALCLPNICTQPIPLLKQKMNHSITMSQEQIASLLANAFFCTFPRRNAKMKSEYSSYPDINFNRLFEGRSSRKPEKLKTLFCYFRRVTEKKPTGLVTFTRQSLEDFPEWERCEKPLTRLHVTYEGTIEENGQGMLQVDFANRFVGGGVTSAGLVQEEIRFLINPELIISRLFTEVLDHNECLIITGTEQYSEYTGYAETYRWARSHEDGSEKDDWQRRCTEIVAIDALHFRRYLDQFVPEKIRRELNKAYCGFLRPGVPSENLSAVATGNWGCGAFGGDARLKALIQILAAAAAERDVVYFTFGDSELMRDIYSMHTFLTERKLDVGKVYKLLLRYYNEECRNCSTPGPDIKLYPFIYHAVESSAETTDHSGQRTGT

By pIC50 is commonly meant the negative decadic logarithm of the IC50, by convention in mol/L. By pEC50 is commonly meant the negative decadic logarithm of the EC50, by convention in mol/L. In the case of `CC1(C)CN(c2cc(S(=O)(=O)NC3(C)CC3)cn3c(-c4nnc(C(F)F)s4)ncc23)CC(CO)N1` (single isomer, unassigned) [Example 14a, (R or S)-3-(5-(difluoromethyl)-1,3,4-thiadiazol-2-yl)-8-(5-(hydroxymethyl)-3,3-dimethylpiperazin-1-yl)-N-(1-methylcyclopropyl)imidazo[1,5-a]pyridine-6-sulfonamide], the negative logarithm of the IC50 (pIC50) in assay [1] is 7.82. The negative logarithm of the EC50 (pEC50) in assay [2] (Homo sapiens, U2OS, 96 h) is less than 4.92; in assay [3], 5.75.

As to `CC1(C)CN(c2cc(S(=O)(=O)NC3(C)CC3)cn3c(-c4nnc(C(F)F)s4)ncc23)CC(CO)N1` (single isomer, unassigned) [Example 14b, (S or R)-3-(5-(difluoromethyl)-1,3,4-thiadiazol-2-yl)-8-(5-(hydroxymethyl)-3,3-dimethylpiperazin-1-yl)-N-(1-methylcyclopropyl)imidazo[1,5-a]pyridine-6-sulfonamide], in assay [1], the pIC50 is 7.92. The negative-log EC50 (pEC50) is less than 4.94 in assay [2] and 7.11 in assay [3].

`C[C@H]1CN(c2cc(S(=O)(=O)NC3(C)CC3)cn3c(-c4nnc(C(F)F)s4)cnc23)C[C@H](C)N1` [Example 1, 3-(5-(difluoromethyl)-1,3,4-thiadiazol-2-yl)-8-((3S,5S)-3,5-dimethylpiperazin-1-yl)-N-(1-methylcyclopropyl)imidazo[1,2-a]pyridine-6-sulfonamide formate]: the negative logarithm of the IC50 (pIC50) in assay [1] is 7.96. The pEC50 was 4.90 in assay [2] (Homo sapiens, U2OS, 96 h) and 7.15 in assay [3] (Homo sapiens, NCI-H460, 96 h).

On to `CC1(NS(=O)(=O)c2cc(C3=CCNCC3(F)F)c3c(Cl)nc(-c4nnc(C(F)F)s4)n3c2)CC1` [Example 2, 1-chloro-8-(3,3-difluoro-1,2,3,6-tetrahydropyridin-4-yl)-3-(5-(difluoromethyl)-1,3,4-thiadiazol-2-yl)-N-(1-methylcyclopropyl)imidazo[1,5-a]pyridine-6-sulfonamide], for which, in assay [1], the negative-log IC50 (pIC50) was 7.96. For the same compound, the pEC50 in assay [2] (Homo sapiens, U2OS, 96 h) is 4.88; in assay [3] (Homo sapiens, NCI-H460, 96 h), 6.70.

As for `COC[C@H]1CN(c2cc(S(=O)(=O)NC3(C)CC3)cn3c(-c4nnc(C(F)F)s4)ncc23)C[C@H](COC)N1` [Example 3, 8-((3R,5R)-3,5-bis(methoxymethyl)piperazin-1-yl)-3-(5-(difluoromethyl)-1,3,4-thiadiazol-2-yl)-N-(1-methylcyclopropyl)imidazo[1,5-a]pyridine-6-sulfonamide formate], in assay [1], the pIC50 is 7.92. Also, the pEC50 is less than 4.96 in assay [2] (Homo sapiens, U2OS, 96 h) and 7.72 in assay [3] (Homo sapiens, NCI-H460, 96 h).

Regarding `CN=S1(=O)CCN(c2cc(S(=O)(=O)NC3(C)CC3)cn3c(-c4nnc(C(F)F)s4)ncc23)CC1C` (stereo not drawn) [Example 4, (Cis or Trans)-3-(5-(difluoromethyl)-1,3,4-thiadiazol-2-yl)-8-(2-methyl-1-(methylimino)-1-oxido-116-thiomorpholino)-N-(1-methylcyclopropyl)imidazo[1,5-a]pyridine-6-sulfonamide], in assay [1], the negative logarithm of the IC50 (pIC50) is 7.96. For the same compound, the negative logarithm of the EC50 (pEC50) in assay [2] (Homo sapiens, U2OS, 96 h) was less than 4.70; in assay [3] (Homo sapiens, NCI-H460, 96 h), 6.95.

Regarding `CN=S1(=O)CCN(c2cc(S(=O)(=O)NC3(C)CC3)cn3c(-c4nnc(C(F)F)s4)ncc23)CC1C` (stereo not drawn) [Example 5, (Trans or Cis)-3-(5-(difluoromethyl)-1,3,4-thiadiazol-2-yl)-8-(2-methyl-1-(methylimino)-1-oxido-116-thiomorpholino)-N-(1-methylcyclopropyl)imidazo[1,5-a]pyridine-6-sulfonamide], the pEC50 in assay [2] was less than 4.70; in assay [3] it was 6.68.

On to `CC1CN(c2cc(S(=O)(=O)NC3(C)CC3)cn3c(-c4nnc(C(F)F)s4)ncc23)CC2(CC2)N1` (centres unmarked) [Example 10, 3-(5-(difluoromethyl)-1,3,4-thiadiazol-2-yl)-8-(5-methyl-4,7-diazaspiro[2.5]octan-7-yl)-N-(1-methylcyclopropyl)imidazo[1,5-a]pyridine-6-sulfonamide formate], for which the pIC50 in assay [1] is 7.96. The pEC50 is less than 4.70 in assay [2] (Homo sapiens, U2OS, 96 h) and 6.38 in assay [3] (Homo sapiens, NCI-H460, 96 h).
